# Data from ChEMBL document CHEMBL1201862, “PubChem BioAssay data set” (2004).
#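 Cells were grown in 96-well plates and exposed to each compound for 48 hours at five concentrations; endpoints were interpolated linearly between bracketing concentrations, or set to the highest concentration if not reached. GI50 marks 50% less growth.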 Active and inactive are the calls of the source. No stated cut-off is given here; in the data, active = GI50 up to about 1.1 µM and inactive = higher.
# What was measured:
# Assay in all cases: DTP human tumour cell line panel, 48 h
# BT-549 = tested on: BT-549
# HOP-92 = tested on: HOP-92
# MCF7 = tested on: MCF7
# HOP-62 = tested on: HOP-62
# EKVX = tested on: EKVX
# SNB-75 = tested on: SNB-75
# HCT-15 = tested on: HCT-15
# CCRF-CEM = tested on: CCRF-CEM
# Malme-3M = tested on: Malme-3M
# SW-620 = tested on: SW-620
# TK-10 = tested on: TK-10
# UACC-62 = tested on: UACC-62
# COLO 205 = tested on: COLO 205
# IGROV-1 = tested on: IGROV-1
# U-251 = tested on: U-251
# NCI-H226 = tested on: NCI-H226
# HT-29 = tested on: HT-29
# RPMI-8226 = tested on: RPMI-8226
# HCC 2998 = tested on: HCC 2998
SMILES,GI50 (BT-549),GI50 (HOP-92),GI50 (MCF7),GI50 (HOP-62),GI50 (EKVX),GI50 (SNB-75),GI50 (HCT-15) [µM],GI50 (CCRF-CEM),GI50 (Malme-3M),GI50 (SW-620),GI50 (TK-10),GI50 (UACC-62),GI50 (COLO 205),GI50 (IGROV-1),GI50 (U-251),GI50 (NCI-H226),GI50 (HT-29),GI50 (RPMI-8226),GI50 (HCC 2998)
COc1cccc(C2SCC(=O)N2c2ccc(-c3ccc(-n4c(-c5ccccc5)nc5ccccc5c4=O)cc3)cc2)c1OC (stereo not given),42 µM (inactive),55.8 µM (inactive),25.2 µM (inactive),> 100 µM (inactive),> 100 µM (inactive),22 µM (inactive),52.7,67.1 µM (inactive),> 100 µM (inactive),> 10 µM (inactive),> 100 µM (inactive),29 µM (inactive),> 100 µM (inactive),99.1 µM (inactive),34.6 µM (inactive),74.1 µM (inactive),68.4 µM (inactive),> 100 µM (inactive),> 100 µM (inactive)
O=C(O)COc1cc(-c2ccccc2F)nc2cc3c(cc12)OCO3,98.6 µM (inactive),61.8 µM (inactive),> 100 µM (inactive),> 100 µM (inactive),> 100 µM (inactive),> 100 µM (inactive),> 100,> 100 µM (inactive),> 100 µM (inactive),> 100 µM (inactive),> 100 µM (inactive),> 100 µM (inactive),> 100 µM (inactive),> 100 µM (inactive),> 100 µM (inactive),> 100 µM (inactive),> 100 µM (inactive),> 100 µM (inactive),> 100 µM (inactive)
C=C1C(=O)CC2C(=O)C(C)(O)CC/C=C(\C)C(=O)CC12 (stereo not given),15.8 µM (inactive),23.6 µM (inactive),11.2 µM (inactive),> 78.9 µM (inactive),21.5 µM (inactive),> 41.9 µM (inactive),13.6,4.23 µM (inactive),11.7 µM (inactive),6.37 µM (inactive),12.7 µM (inactive),30.3 µM (inactive),9.84 µM (inactive),15.3 µM (inactive),> 49.5 µM (inactive),6.07 µM (inactive),17 µM (inactive),15 µM (inactive),> 100 µM (inactive)
N=C(N)N/N=C/c1c(Cl)nc2n1CCS2,> 100 µM (inactive),70.3 µM (inactive),46.1 µM (inactive),38.1 µM (inactive),> 100 µM (inactive),> 100 µM (inactive),> 100,71.9 µM (inactive),> 100 µM (inactive),73.8 µM (inactive),> 100 µM (inactive),> 100 µM (inactive),34.7 µM (inactive),> 100 µM (inactive),82.4 µM (inactive),> 100 µM (inactive),38 µM (inactive),> 100 µM (inactive),45.3 µM (inactive)
Cn1c2ccccc2c2c(=O)[nH]c(=O)[nH]c21,> 100 µM (inactive),> 100 µM (inactive),> 100 µM (inactive),> 100 µM (inactive),> 100 µM (inactive),82.4 µM (inactive),> 100,> 100 µM (inactive),> 100 µM (inactive),> 100 µM (inactive),> 100 µM (inactive),> 100 µM (inactive),> 100 µM (inactive),> 100 µM (inactive),> 100 µM (inactive),> 100 µM (inactive),> 100 µM (inactive),> 100 µM (inactive),> 100 µM (inactive)
O=c1ccc2[n+]([O-])c3ccc(O)cc3oc-2c1 [RESAZURIN],10.7 µM (inactive),> 75.2 µM (inactive),4.95 µM (inactive),18.7 µM (inactive),28.8 µM (inactive),3.45 µM (inactive),5.15,30 µM (inactive),4.02 µM (inactive),11.5 µM (inactive),36 µM (inactive),2.59 µM (inactive),12.9 µM (inactive),25.2 µM (inactive),9.68 µM (inactive),21.1 µM (inactive),19.6 µM (inactive),6.01 µM (inactive),34.6 µM (inactive)
CCCCc1ccc(Nc2nc(OC)c3ncn(C4CC(O)C(CO)O4)c3n2)cc1 (stereo not given),18.9 µM (inactive),1.97 µM (inactive),14.2 µM (inactive),34 µM (inactive),1.58 µM (inactive),18 µM (inactive),13.9,17.5 µM (inactive),20.7 µM (inactive),19.7 µM (inactive),23.4 µM (inactive),17 µM (inactive),14.2 µM (inactive),12.5 µM (inactive),20.7 µM (inactive),19.4 µM (inactive),19.2 µM (inactive),27.2 µM (inactive),6.44 µM (inactive)
O=C1c2ccccc2C(=O)c2c1oc(=O)c1ccccc21,4.51 µM (inactive),5.16 µM (inactive),2.21 µM (inactive),8.13 µM (inactive),5.77 µM (inactive),5.24 µM (inactive),3.26,1.93 µM (inactive),2.63 µM (inactive),2.08 µM (inactive),8.89 µM (inactive),4 µM (inactive),9.71 µM (inactive),3.73 µM (inactive),2.96 µM (inactive),8.93 µM (inactive),1.4 µM (inactive),3.63 µM (inactive),3.21 µM (inactive)
Ic1ccc2c(c1)N(c1ccccc1)c1cc([N-]c3ccc4nc5ccc(I)cc5[n+](-c5ccccc5)c4c3)ccc1N2,> 100 µM (inactive),> 100 µM (inactive),26.4 µM (inactive),41.3 µM (inactive),32.2 µM (inactive),> 100 µM (inactive),> 100,15 µM (inactive),38 µM (inactive),51.9 µM (inactive),> 100 µM (inactive),69.3 µM (inactive),16.2 µM (inactive),43.8 µM (inactive),45.6 µM (inactive),> 100 µM (inactive),14.8 µM (inactive),32.1 µM (inactive),67.1 µM (inactive)
O=C(Cc1ccc2ccccc2c1)NCc1ccc(C(=O)NCCc2ccccc2)cc1,> 100 µM (inactive),> 100 µM (inactive),> 100 µM (inactive),> 100 µM (inactive),> 100 µM (inactive),> 100 µM (inactive),> 100,20.3 µM (inactive),> 100 µM (inactive),> 100 µM (inactive),> 100 µM (inactive),> 100 µM (inactive),> 100 µM (inactive),> 100 µM (inactive),> 100 µM (inactive),> 100 µM (inactive),94.4 µM (inactive),> 100 µM (inactive),> 100 µM (inactive)
N=C(N)NS(=O)(=O)c1ccc(NC(=O)c2ccc3nc4ccccc4c(O)c3c2)cc1,> 100 µM (inactive),> 100 µM (inactive),> 100 µM (inactive),> 100 µM (inactive),> 100 µM (inactive),> 100 µM (inactive),> 100,> 100 µM (inactive),> 100 µM (inactive),> 100 µM (inactive),> 100 µM (inactive),> 100 µM (inactive),> 100 µM (inactive),> 100 µM (inactive),> 100 µM (inactive),> 100 µM (inactive),> 100 µM (inactive),> 100 µM (inactive),> 100 µM (inactive)
COC(=O)CN1c2nc(C#N)c(C#N)nc2N(CC(=O)OC)c2nc(C#N)c(C#N)nc21,4.78 µM (inactive),1.87 µM (inactive),3.13 µM (inactive),16.5 µM (inactive),4.47 µM (inactive),14 µM (inactive),3.05,1.01 µM (active),0.301 µM (active),1.76 µM (inactive),2.5 µM (inactive),5.45 µM (inactive),1.26 µM (inactive),3.46 µM (inactive),6.81 µM (inactive),38.8 µM (inactive),3.02 µM (inactive),1.87 µM (inactive),16.7 µM (inactive)
O=c1[nH]c(=O)n(C2OC(CO)C(O)C2O)c2nc(-c3ccc(-c4ccccc4)cc3)cnc12 (stereo not given),> 100 µM (inactive),> 100 µM (inactive),> 100 µM (inactive),> 100 µM (inactive),> 100 µM (inactive),> 100 µM (inactive),> 100,> 100 µM (inactive),> 100 µM (inactive),> 100 µM (inactive),> 100 µM (inactive),> 100 µM (inactive),> 100 µM (inactive),> 100 µM (inactive),> 100 µM (inactive),> 100 µM (inactive),> 100 µM (inactive),> 100 µM (inactive),> 100 µM (inactive)
C[Si](C)(C)C1=C([Si](C)(C)C)C(Cl)(Cl)C1=O,3.63 µM (inactive),2.04 µM (inactive),6.15 µM (inactive),18.7 µM (inactive),4.72 µM (inactive),8.77 µM (inactive),1.92,0.232 µM (active),1.75 µM (inactive),2.27 µM (inactive),1.68 µM (inactive),2.38 µM (inactive),2.04 µM (inactive),3.73 µM (inactive),4.08 µM (inactive),3.13 µM (inactive),3.11 µM (inactive),0.8 µM (active),8.36 µM (inactive)
NC(=O)C1CCCN1C(=O)N(CCCl)N=O (stereo not given),> 100 µM (inactive),> 100 µM (inactive),> 100 µM (inactive),> 100 µM (inactive),> 100 µM (inactive),14.9 µM (inactive),> 100,> 100 µM (inactive),> 100 µM (inactive),> 100 µM (inactive),> 100 µM (inactive),> 100 µM (inactive),> 100 µM (inactive),> 100 µM (inactive),> 100 µM (inactive),> 100 µM (inactive),> 100 µM (inactive),> 100 µM (inactive),> 100 µM (inactive)
